{"source": "paper PMC7179653", "about": "(Antimicrobial Agents and Chemotherapy, 2020)", "assay": "MAD study: safety and tolerability (TEAEs, laboratory safety tests)", "assay_type": "in vivo, human", "conditions": "for TEAE: Catheter site pain / TEAE: Diarrhea / TEAE: Ecchymosis / TEAE: Headache / TEAE: Infusion site extravasation / TEAE: Injection site erythema / TEAE: Injection site extravasation / TEAE: Injection site hemorrhage / TEAE: Injection site injury / TEAE: Injection site pain / TEAE: Medical device site erythema (erythema at the ECG patch sites) / TEAE: Nausea / TEAE: Phlebitis / TEAE: Scratch / TEAE: Vessel puncture site hemorrhage / Withdrawn due to AE / ≥1 TEAE / ≥1 drug-related TEAE / ≥1 serious TEAE: n = 6", "experimental": "The MAD study consisted of three parts (Fig. 1). […] Participants were enrolled in two sequential cohorts (cohort 1, followed by cohort 2). […] Participants were also enrolled in two sequential cohorts (cohort 3, followed by cohort 4). […] A washout period of approximately 24 h between treatments was provided. A sentinel dosing strategy was employed in both studies. […] In all cohorts, escalation to the next dose occurred after a safety review of the previous cohort. In the MAD study, sentinel dosing was performed in part 3, wherein participants were evaluated for safety up to 24 h after administration of the first drug combination (or placebo) on day 3, prior to enrolling additional participants. Safety assessments included monitoring of AEs, laboratory safety tests (hematology, serum chemistry, and urinalysis), 12-lead ECG (discrete recordings and 24-h Holter recording), and vital signs (blood pressure, pulse rate, and body temperature). In the SAD study, safety assessments were performed predose at screening, at day 1, postdose periodically on days 1, 2, and 7 (follow-up), and at early withdrawal, if relevant. […] In the MAD study, safety assessments were done predose at screening, at day 2, postdose periodically on days 1, 2, 4, 7, and 8, on days 13 to 15 (follow-up), and at early withdrawal, if relevant. […] On all other days, a single predose sample was collected for pharmacokinetic evaluation prior to the morning infusion. Blood was collected into lithium-heparin tubes and stored at a nominal –80°C temperature until analysis.", "key": {"[1]": {"conditions": "MAD parts 1 and 2, 8,000 mg (single dose)"}}, "data": [{"smiles": "NCCONC(=O)[C@@H]1CC[C@@H]2CN1C(=O)N2OS(=O)(=O)O", "note": "[Nacubactam]", "values": [{"measurement": "participants reporting AEs", "setting": "MAD monotherapy phase (parts 1 and 2), 13 of the 24 participants", "value": 54.2, "unit": "%"}, {"measurement": "total number of AEs", "setting": "MAD monotherapy phase (parts 1 and 2), 24 participants", "value": 48}, {"measurement": "TEAE: Catheter site pain", "setting": "MAD parts 1 and 2, 1,000 mg", "value": "1/1"}, {"measurement": "TEAE: Diarrhea", "setting": "MAD parts 1 and 2, 1,000 mg", "value": 0, "unit": "n/E"}, {"measurement": "TEAE: Ecchymosis", "setting": "MAD parts 1 and 2, 1,000 mg", "value": "1/1"}, {"measurement": "TEAE: Headache", "setting": "MAD parts 1 and 2, 1,000 mg", "value": "1/1"}, {"measurement": "TEAE: Infusion site extravasation", "setting": "MAD parts 1 and 2, 1,000 mg", "value": "1/1"}, {"measurement": "TEAE: Injection site erythema", "setting": "MAD parts 1 and 2, 1,000 mg", "value": "1/1"}, {"measurement": "TEAE: Injection site extravasation", "setting": "MAD parts 1 and 2, 1,000 mg", "value": 0, "unit": "n/E"}, {"measurement": "TEAE: Injection site hemorrhage", "setting": "MAD parts 1 and 2, 1,000 mg", "value": 0, "unit": "n/E"}, {"measurement": "TEAE: Injection site injury", "setting": "MAD parts 1 and 2, 1,000 mg", "value": 0, "unit": "n/E"}, {"measurement": "TEAE: Injection site pain", "setting": "MAD parts 1 and 2, 1,000 mg", "value": 0, "unit": "n/E"}, {"measurement": "TEAE: Medical device site erythema (erythema at the ECG patch sites)", "setting": "MAD parts 1 and 2, 1,000 mg", "value": 0, "unit": "n/E"}, {"measurement": "TEAE: Nausea", "setting": "MAD parts 1 and 2, 1,000 mg", "value": 0, "unit": "n/E"}, {"measurement": "TEAE: Phlebitis", "setting": "MAD parts 1 and 2, 1,000 mg", "value": 0, "unit": "n/E"}, {"measurement": "TEAE: Scratch", "setting": "MAD parts 1 and 2, 1,000 mg", "value": 0, "unit": "n/E"}, {"measurement": "TEAE: Vessel puncture site hemorrhage", "setting": "MAD parts 1 and 2, 1,000 mg", "value": 0, "unit": "n/E"}, {"measurement": "Withdrawn due to AE", "setting": "MAD parts 1 and 2, 1,000 mg", "value": 0, "unit": "n"}, {"measurement": "≥1 TEAE", "setting": "MAD parts 1 and 2, 1,000 mg", "value": "4/8"}, {"measurement": "≥1 drug-related TEAE", "setting": "MAD parts 1 and 2, 1,000 mg", "value": "2/2"}, {"measurement": "≥1 serious TEAE", "setting": "MAD parts 1 and 2, 1,000 mg", "value": 0, "unit": "n"}, {"measurement": "TEAE: Catheter site pain", "setting": "MAD parts 1 and 2, 2,000 mg", "value": 0, "unit": "n/E"}, {"measurement": "TEAE: Diarrhea", "setting": "MAD parts 1 and 2, 2,000 mg", "value": 0, "unit": "n/E"}, {"measurement": "TEAE: Ecchymosis", "setting": "MAD parts 1 and 2, 2,000 mg", "value": 0, "unit": "n/E"}, {"measurement": "TEAE: Headache", "setting": "MAD parts 1 and 2, 2,000 mg", "value": 0, "unit": "n/E"}, {"measurement": "TEAE: Infusion site extravasation", "setting": "MAD parts 1 and 2, 2,000 mg", "value": 0, "unit": "n/E"}, {"measurement": "TEAE: Injection site erythema", "setting": "MAD parts 1 and 2, 2,000 mg", "value": 0, "unit": "n/E"}, {"measurement": "TEAE: Injection site extravasation", "setting": "MAD parts 1 and 2, 2,000 mg", "value": "1/1"}, {"measurement": "TEAE: Injection site hemorrhage", "setting": "MAD parts 1 and 2, 2,000 mg", "value": 0, "unit": "n/E"}, {"measurement": "TEAE: Injection site injury", "setting": "MAD parts 1 and 2, 2,000 mg", "value": 0, "unit": "n/E"}, {"measurement": "TEAE: Injection site pain", "setting": "MAD parts 1 and 2, 2,000 mg", "value": 0, "unit": "n/E"}, {"measurement": "TEAE: Medical device site erythema (erythema at the ECG patch sites)", "setting": "MAD parts 1 and 2, 2,000 mg", "value": 0, "unit": "n/E"}, {"measurement": "TEAE: Nausea", "setting": "MAD parts 1 and 2, 2,000 mg", "value": 0, "unit": "n/E"}, {"measurement": "TEAE: Phlebitis", "setting": "MAD parts 1 and 2, 2,000 mg", "value": 0, "unit": "n/E"}, {"measurement": "TEAE: Scratch", "setting": "MAD parts 1 and 2, 2,000 mg", "value": 0, "unit": "n/E"}, {"measurement": "TEAE: Vessel puncture site hemorrhage", "setting": "MAD parts 1 and 2, 2,000 mg", "value": 0, "unit": "n/E"}, {"measurement": "Withdrawn due to AE", "setting": "MAD parts 1 and 2, 2,000 mg", "value": 0, "unit": "n"}, {"measurement": "≥1 TEAE", "setting": "MAD parts 1 and 2, 2,000 mg", "value": "2/3"}, {"measurement": "≥1 drug-related TEAE", "setting": "MAD parts 1 and 2, 2,000 mg", "value": "2/2"}, {"measurement": "≥1 serious TEAE", "setting": "MAD parts 1 and 2, 2,000 mg", "value": 0, "unit": "n"}, {"measurement": "TEAE: Catheter site pain", "setting": "MAD parts 1 and 2, 4,000 mg", "value": 0, "unit": "n/E"}, {"measurement": "TEAE: Diarrhea", "setting": "MAD parts 1 and 2, 4,000 mg", "value": 0, "unit": "n/E"}, {"measurement": "TEAE: Ecchymosis", "setting": "MAD parts 1 and 2, 4,000 mg", "value": 0, "unit": "n/E"}, {"measurement": "TEAE: Headache", "setting": "MAD parts 1 and 2, 4,000 mg", "value": "1/1"}, {"measurement": "TEAE: Infusion site extravasation", "setting": "MAD parts 1 and 2, 4,000 mg", "value": 0, "unit": "n/E"}, {"measurement": "TEAE: Injection site erythema", "setting": "MAD parts 1 and 2, 4,000 mg", "value": "1/1"}, {"measurement": "TEAE: Injection site extravasation", "setting": "MAD parts 1 and 2, 4,000 mg", "value": "1/1"}, {"measurement": "TEAE: Injection site hemorrhage", "setting": "MAD parts 1 and 2, 4,000 mg", "value": "2/2"}, {"measurement": "TEAE: Injection site injury", "setting": "MAD parts 1 and 2, 4,000 mg", "value": "2/2"}, {"measurement": "TEAE: Injection site pain", "setting": "MAD parts 1 and 2, 4,000 mg", "value": "3/3"}, {"measurement": "TEAE: Medical device site erythema (erythema at the ECG patch sites)", "setting": "MAD parts 1 and 2, 4,000 mg", "value": "4/4"}, {"measurement": "TEAE: Nausea", "setting": "MAD parts 1 and 2, 4,000 mg", "value": 0, "unit": "n/E"}, {"measurement": "TEAE: Phlebitis", "setting": "MAD parts 1 and 2, 4,000 mg", "value": 0, "unit": "n/E"}, {"measurement": "TEAE: Scratch", "setting": "MAD parts 1 and 2, 4,000 mg", "value": "1/1"}, {"measurement": "TEAE: Vessel puncture site hemorrhage", "setting": "MAD parts 1 and 2, 4,000 mg", "value": "2/2"}, {"measurement": "Withdrawn due to AE", "setting": "MAD parts 1 and 2, 4,000 mg", "value": 0, "unit": "n"}, {"measurement": "≥1 TEAE", "setting": "MAD parts 1 and 2, 4,000 mg", "value": "6/36"}, {"measurement": "≥1 drug-related TEAE", "setting": "MAD parts 1 and 2, 4,000 mg", "value": "3/3"}, {"measurement": "≥1 serious TEAE", "setting": "MAD parts 1 and 2, 4,000 mg", "value": 0, "unit": "n"}, {"measurement": "TEAE: Catheter site pain", "setting": "[1]", "value": 0, "unit": "n/E"}, {"measurement": "TEAE: Diarrhea", "setting": "[1]", "value": 0, "unit": "n/E"}, {"measurement": "TEAE: Ecchymosis", "setting": "[1]", "value": 0, "unit": "n/E"}, {"measurement": "TEAE: Headache", "setting": "[1]", "value": 0, "unit": "n/E"}, {"measurement": "TEAE: Infusion site extravasation", "setting": "[1]", "value": 0, "unit": "n/E"}, {"measurement": "TEAE: Injection site erythema", "setting": "[1]", "value": 0, "unit": "n/E"}, {"measurement": "TEAE: Injection site extravasation", "setting": "[1]", "value": 0, "unit": "n/E"}, {"measurement": "TEAE: Injection site hemorrhage", "setting": "[1]", "value": 0, "unit": "n/E"}, {"measurement": "TEAE: Injection site injury", "setting": "[1]", "value": 0, "unit": "n/E"}, {"measurement": "TEAE: Injection site pain", "setting": "[1]", "value": 0, "unit": "n/E"}, {"measurement": "TEAE: Medical device site erythema (erythema at the ECG patch sites)", "setting": "[1]", "value": 0, "unit": "n/E"}, {"measurement": "TEAE: Nausea", "setting": "[1]", "value": 0, "unit": "n/E"}, {"measurement": "TEAE: Phlebitis", "setting": "[1]", "value": 0, "unit": "n/E"}, {"measurement": "TEAE: Scratch", "setting": "[1]", "value": 0, "unit": "n/E"}, {"measurement": "TEAE: Vessel puncture site hemorrhage", "setting": "[1]", "value": 0, "unit": "n/E"}, {"measurement": "Withdrawn due to AE", "setting": "[1]", "value": 0, "unit": "n"}, {"measurement": "≥1 TEAE", "setting": "[1]", "value": "1/1"}, {"measurement": "≥1 drug-related TEAE", "setting": "[1]", "value": 0, "unit": "n/E"}, {"measurement": "≥1 serious TEAE", "setting": "[1]", "value": 0, "unit": "n"}, {"measurement": "tolerability", "setting": "all single doses up to 8,000 mg and multiple doses up to 4,000 mg q8h", "value": "well tolerated"}, {"measurement": "serious AEs", "setting": "alone (50 to 8,000 mg) or coadministered with meropenem (2,000 mg each), both studies", "value": "no serious AEs were reported"}, {"measurement": "effect on kidney function", "setting": "nacubactam alone, validated measures of renal function and exploratory urine kidney biomarkers", "value": "no significant effects on kidney function"}]}]}
